Measured values: US12145917B2, “Crystalline forms of a compound for treating or preventing gout or hyperuricemia” (Arthrosi Therapeutics, Inc., priority 2019, dated 2024)

Assays:
[1] = target: T1, human URAT1 uptake transporter (Homo sapiens, UniProt Q96S37); experiment: In vitro interaction study with the human URAT1 uptake transporter (uric acid uptake in MDCKII cells); format: cell-based; settings: MDCK-II, at a concentration of 10 μM, read-out: Inhibition of URAT1 mediated uric acid accumulation
T1 construct: expressed in transfected cells
T1 sequence (Q96S37 1-553): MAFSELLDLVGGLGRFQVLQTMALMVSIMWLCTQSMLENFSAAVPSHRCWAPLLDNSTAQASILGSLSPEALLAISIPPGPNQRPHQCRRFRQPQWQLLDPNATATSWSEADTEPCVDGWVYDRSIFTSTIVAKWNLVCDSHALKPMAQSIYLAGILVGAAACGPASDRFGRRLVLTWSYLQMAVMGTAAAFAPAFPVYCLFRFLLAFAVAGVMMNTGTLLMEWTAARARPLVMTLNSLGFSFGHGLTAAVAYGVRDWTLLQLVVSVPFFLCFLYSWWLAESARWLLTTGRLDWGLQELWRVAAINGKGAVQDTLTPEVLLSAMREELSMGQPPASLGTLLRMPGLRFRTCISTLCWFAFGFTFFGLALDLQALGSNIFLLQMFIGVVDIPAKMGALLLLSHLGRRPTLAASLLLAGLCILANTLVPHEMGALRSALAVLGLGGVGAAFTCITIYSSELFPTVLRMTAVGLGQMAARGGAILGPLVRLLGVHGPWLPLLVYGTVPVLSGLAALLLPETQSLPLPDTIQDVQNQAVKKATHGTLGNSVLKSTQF
Method: Uptake experiments were performed using MDCKII cells stably expressing the human URAT1 uptake transporter. Cells were cultured at 37±1° C. in an atmosphere of 95:5 air:CO2 and were plated onto standard 96-well tissue culture plates at the cell number described in Table 5.
Radiolabeled probe substrate transport was determined by measuring an aliquot (35 μL) from each well for liquid scintillation counting.

[2] = cited from earlier work
[3] = target: CYP2C9 (Homo sapiens, UniProt P11712); experiment: CYP2C9 metabolic pathway / metabolite formation; format: in vitro ADME
[4] = Stability in human microsomes; format: in vitro ADME
[5] = Dynamic vapor sorption (DVS); format: physicochemical; settings: for Post-GVS analysis by XRPD (change of form): after DVS cycle 0-90-0% RH; for Moisture uptake (DVS): between 0-90% RH
Method: DVS studies were performed using a DVS Intrinsic (SMS, UK) or IGASORP (Hiden, UK). 10 to 50 mg of compound was transferred into the DVS and the weight change recorded with respect to a varying atmospheric humidity at 25° C. using the following parameters:
Drying at 40° C. until dm/dt<±0.002%/min
Min time: 30 min, Max time: 120 min (for IGASORP)
Characterize the sample after the DVS experiment by XRPD

CYP2C9, sequence (P11712 whole entry): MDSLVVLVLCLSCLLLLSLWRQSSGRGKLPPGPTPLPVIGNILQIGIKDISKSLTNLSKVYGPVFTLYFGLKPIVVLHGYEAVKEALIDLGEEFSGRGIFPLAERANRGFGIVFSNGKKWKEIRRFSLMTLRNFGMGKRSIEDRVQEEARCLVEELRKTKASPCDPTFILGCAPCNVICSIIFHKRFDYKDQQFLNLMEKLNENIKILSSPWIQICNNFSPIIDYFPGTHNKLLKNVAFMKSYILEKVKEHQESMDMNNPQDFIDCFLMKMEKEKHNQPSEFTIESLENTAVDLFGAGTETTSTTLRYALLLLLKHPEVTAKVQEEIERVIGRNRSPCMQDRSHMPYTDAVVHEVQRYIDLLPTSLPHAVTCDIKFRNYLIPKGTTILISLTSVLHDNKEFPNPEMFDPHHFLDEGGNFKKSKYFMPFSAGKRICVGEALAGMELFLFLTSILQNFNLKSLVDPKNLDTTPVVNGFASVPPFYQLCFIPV

Hygroscopicity ([5]; DVS, 25° C.)	Post-GVS analysis by XRPD (change of form) [5]	Moisture uptake (DVS) ([5]; 25° C.) [%]	SMILES	inhibition at 10 µM [1] [%]	also measured
–	–	–	CCc1oc2ccccc2c1C(=O)c1cc(Br)c(O)c(Br)c1 [Benzbromarone]	98	Serum uric acid (sUA) level reached ([2]; chronic therapy): < 6 mg/dL; Hepatotoxicity ([2]; in certain patients): associated with hepatotoxicity
–	–	–	[2H]c1c([2H])c([2H])c2c(C(=O)c3cc(Br)c(O)c(Br)c3)c(C(C)O)oc2c1[2H] (centres unmarked) [Compound 1, (3,5-dibromo-4-hydroxyphenyl)(2-(1-hydroxyethyl)benzofuran-3-yl-4,5,6,7-d4)methanone]	100	Formation of 6-OH benzbromarone and 5,6-di-OH benzbromarone metabolites [3]: not formed; CYP2C9 metabolic pathway ([3]; compared with benzbromarone): significantly reduced; Stability in human microsomes compared with benzbromarone [4]: more stable than benzbromarone in human microsomes
–	–	–	[2H]c1c([2H])c([2H])c2c(C(=O)c3cc(Br)c(O)c(Br)c3)c(C(C)O)oc2c1[2H] (centres unmarked) [Form 1, (3,5-dibromo-4-hydroxyphenyl)(2-(1-hydroxyethyl)benzofuran-3-yl-4,5,6,7-d4)methanone]	–	RH at which the dehydrated form converted to hydrated form ([5]; DVS, 25° C.): ≥ 20%
non-hygroscopic	no change	0.08	[2H]c1c([2H])c([2H])c2c(C(=O)c3cc(Br)c(O)c(Br)c3)c(C(C)O)oc2c1[2H] (centres unmarked) [Form 2, (3,5-dibromo-4-hydroxyphenyl)(2-(1-hydroxyethyl)benzofuran-3-yl-4,5,6,7-d4)methanone]	–	–
non-hygroscopic	no change	0.04	[2H]c1c([2H])c([2H])c2c(C(=O)c3cc(Br)c(O)c(Br)c3)c(C(C)O)oc2c1[2H] (centres unmarked) [Form 3, (3,5-dibromo-4-hydroxyphenyl)(2-(1-hydroxyethyl)benzofuran-3-yl-4,5,6,7-d4)methanone]	–	–
